Results as given in the supplement of paper PMC11424490.

Assays:
[1] = system: NCI-H2122; assay: combination cScore with sotorasib (Bliss gap around IC50) (%PoC); higher = stronger additive effect
Method: (§1)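 Combination screen of 179 inhibitors with the KRAS G12C inhibitor sotorasib (AMG510) in dose matrices, CellTiter-Glo readout in NCI-H2122 (72 h), SW837 (144 h) and NCI-H358 cells. The cScore is the mean Bliss-independence gap (expected minus observed viability, in %PoC) over a 3x3 field around the IC50s of both drugs. Positive means additive, and >~10 is stated as clear additive.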

[2] = system: SW837; assay: as above
Method: as §1

NC(=O)Nc1cc(-c2cccc(F)c2)sc1C(=O)N[C@H]1CCCNC1 [AZD-7762] + C=CC(=O)N1CCN(c2nc(=O)n(-c3c(C)ccnc3C(C)C)c3nc(-c4c(O)cccc4F)c(F)cc23)[C@@H](C)C1 [sotorasib]
combination cScore with sotorasib [1]: 2.45 | combination cScore with sotorasib [2]: 6.36

COc1cc2cc(c1Cl)N(C)C(=O)C[C@H](OC(=O)C(C)C)[C@]1(C)O[C@@H]1[C@H](C)[C@@H]1C[C@@](O)(NC(=O)O1)[C@H](OC)/C=C/C=C(\C)C2 [Ansamitocin P3] + C=CC(=O)N1CCN(c2nc(=O)n(-c3c(C)ccnc3C(C)C)c3nc(-c4c(O)cccc4F)c(F)cc23)[C@@H](C)C1 [sotorasib]
combination cScore with sotorasib [1]: 5.88 | combination cScore with sotorasib [2]: -0.32

Cc1ncc([N+](=O)[O-])n1CCOC(=O)NC(Nc1ncccn1)C(Cl)(Cl)Cl (stereo unspecified) [Apcin] + C=CC(=O)N1CCN(c2nc(=O)n(-c3c(C)ccnc3C(C)C)c3nc(-c4c(O)cccc4F)c(F)cc23)[C@@H](C)C1 [sotorasib]
combination cScore with sotorasib [1]: -0.45 | combination cScore with sotorasib [2]: 4.14

Nc1ncn([C@@H]2O[C@H](CO)[C@@H](O)[C@H]2O)c(=O)n1 [Azacitidine] + C=CC(=O)N1CCN(c2nc(=O)n(-c3c(C)ccnc3C(C)C)c3nc(-c4c(O)cccc4F)c(F)cc23)[C@@H](C)C1 [sotorasib]
combination cScore with sotorasib [1]: 3.93 | combination cScore with sotorasib [2]: 18.6

CCN1CCN(c2ccc(Nc3cc(N(C)C(=O)Nc4c(Cl)c(OC)cc(OC)c4Cl)ncn3)cc2)CC1 [BGJ398] + C=CC(=O)N1CCN(c2nc(=O)n(-c3c(C)ccnc3C(C)C)c3nc(-c4c(O)cccc4F)c(F)cc23)[C@@H](C)C1 [sotorasib]
combination cScore with sotorasib [1]: 2.52 | combination cScore with sotorasib [2]: 12.1

O=C(Cc1ccccc1)Nc1nnc(CCSCCc2nnc(NC(=O)Cc3ccccc3)s2)s1 [BPTES] + C=CC(=O)N1CCN(c2nc(=O)n(-c3c(C)ccnc3C(C)C)c3nc(-c4c(O)cccc4F)c(F)cc23)[C@@H](C)C1 [sotorasib]
combination cScore with sotorasib [1]: 4.36 | combination cScore with sotorasib [2]: -3.09

Nc1nc(Nc2ccc3c(c2)CC[C@@H](N2CCCC2)CC3)nn1-c1cc2c(nn1)-c1ccccc1CCC2 [Bemcentinib] + C=CC(=O)N1CCN(c2nc(=O)n(-c3c(C)ccnc3C(C)C)c3nc(-c4c(O)cccc4F)c(F)cc23)[C@@H](C)C1 [sotorasib]
combination cScore with sotorasib [1]: -5 | combination cScore with sotorasib [2]: 4.27

C=C(c1ccc(C(=O)O)cc1)c1cc2c(cc1C)C(C)(C)CCC2(C)C [Bexarotene] + C=CC(=O)N1CCN(c2nc(=O)n(-c3c(C)ccnc3C(C)C)c3nc(-c4c(O)cccc4F)c(F)cc23)[C@@H](C)C1 [sotorasib]
combination cScore with sotorasib [1]: 14.2 | combination cScore with sotorasib [2]: -2.93

CC(O)(CS(=O)(=O)c1ccc(F)cc1)C(=O)Nc1ccc(C#N)c(C(F)(F)F)c1 (stereo unspecified) [Bicalutamide] + C=CC(=O)N1CCN(c2nc(=O)n(-c3c(C)ccnc3C(C)C)c3nc(-c4c(O)cccc4F)c(F)cc23)[C@@H](C)C1 [sotorasib]
combination cScore with sotorasib [1]: 3.68 | combination cScore with sotorasib [2]: -1.56

CO[C@H]1CC[C@H](n2c([C@@H]3CCCC(=O)N3c3ccc(F)c(F)c3)nc3cc(-c4c(C)noc4C)ccc32)CC1 [CCS1477] + C=CC(=O)N1CCN(c2nc(=O)n(-c3c(C)ccnc3C(C)C)c3nc(-c4c(O)cccc4F)c(F)cc23)[C@@H](C)C1 [sotorasib]
combination cScore with sotorasib [1]: 13.8 | combination cScore with sotorasib [2]: 11.8

O=C(O)CCCCC(CCSCc1ccccc1)SCc1ccccc1 (stereo unspecified) [CPI-613] + C=CC(=O)N1CCN(c2nc(=O)n(-c3c(C)ccnc3C(C)C)c3nc(-c4c(O)cccc4F)c(F)cc23)[C@@H](C)C1 [sotorasib]
combination cScore with sotorasib [1]: 19 | combination cScore with sotorasib [2]: -5.35

CCCCCOC(=O)Nc1nc(=O)n([C@@H]2O[C@H](C)[C@@H](O)[C@H]2O)cc1F [Capecitabin] + C=CC(=O)N1CCN(c2nc(=O)n(-c3c(C)ccnc3C(C)C)c3nc(-c4c(O)cccc4F)c(F)cc23)[C@@H](C)C1 [sotorasib]
combination cScore with sotorasib [1]: 4.4 | combination cScore with sotorasib [2]: 1.19

C[C@H](CS)C(=O)N1CCC[C@H]1C(=O)O [Captopril] + C=CC(=O)N1CCN(c2nc(=O)n(-c3c(C)ccnc3C(C)C)c3nc(-c4c(O)cccc4F)c(F)cc23)[C@@H](C)C1 [sotorasib]
combination cScore with sotorasib [1]: 1.43 | combination cScore with sotorasib [2]: -0.1

O=C(O)C1(C(=O)O)CCC1.[NH2-].[NH2-].[Pt+2] [Carboplatin] + C=CC(=O)N1CCN(c2nc(=O)n(-c3c(C)ccnc3C(C)C)c3nc(-c4c(O)cccc4F)c(F)cc23)[C@@H](C)C1 [sotorasib]
combination cScore with sotorasib [1]: 11.6 | combination cScore with sotorasib [2]: -4.17

COc1cc2c(Oc3ccc4[nH]c(C)cc4c3F)ncnc2cc1OCCCN1CCCC1 [Cediranib] + C=CC(=O)N1CCN(c2nc(=O)n(-c3c(C)ccnc3C(C)C)c3nc(-c4c(O)cccc4F)c(F)cc23)[C@@H](C)C1 [sotorasib]
combination cScore with sotorasib [1]: 0.01 | combination cScore with sotorasib [2]: 1.55

N.N.[Cl][Pt][Cl] [Cisplatin] + C=CC(=O)N1CCN(c2nc(=O)n(-c3c(C)ccnc3C(C)C)c3nc(-c4c(O)cccc4F)c(F)cc23)[C@@H](C)C1 [sotorasib]
combination cScore with sotorasib [1]: 4.22 | combination cScore with sotorasib [2]: -10.2

Nc1nc(Cl)nc2c1ncn2[C@@H]1O[C@H](CO)[C@@H](O)[C@@H]1F [Clofarabine] + C=CC(=O)N1CCN(c2nc(=O)n(-c3c(C)ccnc3C(C)C)c3nc(-c4c(O)cccc4F)c(F)cc23)[C@@H](C)C1 [sotorasib]
combination cScore with sotorasib [1]: 1 | combination cScore with sotorasib [2]: 3.33

O=C(c1ccc(F)c(F)c1Nc1ccc(I)cc1F)N1CC(O)([C@@H]2CCCCN2)C1 [Cobimetinib] + C=CC(=O)N1CCN(c2nc(=O)n(-c3c(C)ccnc3C(C)C)c3nc(-c4c(O)cccc4F)c(F)cc23)[C@@H](C)C1 [sotorasib]
combination cScore with sotorasib [1]: 5.25 | combination cScore with sotorasib [2]: 11.3

Nc1ccn([C@@H]2O[C@H](CO)[C@@H](O)[C@@H]2O)c(=O)n1 [Cytarabin] + C=CC(=O)N1CCN(c2nc(=O)n(-c3c(C)ccnc3C(C)C)c3nc(-c4c(O)cccc4F)c(F)cc23)[C@@H](C)C1 [sotorasib]
combination cScore with sotorasib [1]: 5.6 | combination cScore with sotorasib [2]: 8.17

CC(C)(C)c1nc(-c2cccc(NS(=O)(=O)c3c(F)cccc3F)c2F)c(-c2ccnc(N)n2)s1 [Dabrafenib] + C=CC(=O)N1CCN(c2nc(=O)n(-c3c(C)ccnc3C(C)C)c3nc(-c4c(O)cccc4F)c(F)cc23)[C@@H](C)C1 [sotorasib]
combination cScore with sotorasib [1]: 13.3 | combination cScore with sotorasib [2]: -2.81

Nc1ncn([C@H]2C[C@H](O)[C@@H](CO)O2)c(=O)n1 [Decitabine] + C=CC(=O)N1CCN(c2nc(=O)n(-c3c(C)ccnc3C(C)C)c3nc(-c4c(O)cccc4F)c(F)cc23)[C@@H](C)C1 [sotorasib]
combination cScore with sotorasib [1]: 1 | combination cScore with sotorasib [2]: 0.84

C[C@@H]1C[C@H]2[C@@H]3CCC4=CC(=O)C=C[C@]4(C)[C@@]3(F)[C@@H](O)C[C@]2(C)[C@@]1(O)C(=O)CO [Dexamethasone] + C=CC(=O)N1CCN(c2nc(=O)n(-c3c(C)ccnc3C(C)C)c3nc(-c4c(O)cccc4F)c(F)cc23)[C@@H](C)C1 [sotorasib]
combination cScore with sotorasib [1]: -0.78 | combination cScore with sotorasib [2]: -13.1

CC(=O)O[C@@]12CO[C@@H]1C[C@H](O)[C@@]1(C)C(=O)[C@H](O)C3=C(C)[C@@H](OC(=O)[C@H](O)[C@@H](NC(=O)OC(C)(C)C)c4ccccc4)C[C@@](O)([C@@H](OC(=O)c4ccccc4)[C@H]21)C3(C)C [Docetaxel] + C=CC(=O)N1CCN(c2nc(=O)n(-c3c(C)ccnc3C(C)C)c3nc(-c4c(O)cccc4F)c(F)cc23)[C@@H](C)C1 [sotorasib]
combination cScore with sotorasib [1]: 1.66 | combination cScore with sotorasib [2]: 3.98

COc1cccc2c1C(=O)c1c(O)c3c(c(O)c1C2=O)C[C@@](O)(C(=O)CO)C[C@@H]3O[C@H]1C[C@H](N)[C@H](O)[C@H](C)O1 [Doxorubicin] + C=CC(=O)N1CCN(c2nc(=O)n(-c3c(C)ccnc3C(C)C)c3nc(-c4c(O)cccc4F)c(F)cc23)[C@@H](C)C1 [sotorasib]
combination cScore with sotorasib [1]: 11.1 | combination cScore with sotorasib [2]: 11

CN(NC(=O)CC(=O)NN(C)C(=S)c1ccccc1)C(=S)c1ccccc1 [Elesclomol] + C=CC(=O)N1CCN(c2nc(=O)n(-c3c(C)ccnc3C(C)C)c3nc(-c4c(O)cccc4F)c(F)cc23)[C@@H](C)C1 [sotorasib]
combination cScore with sotorasib [1]: 13.6 | combination cScore with sotorasib [2]: 13.4

CNC(=O)c1ccc(N2C(=S)N(c3ccc(C#N)c(C(F)(F)F)c3)C(=O)C2(C)C)cc1F [Enzalutamide] + C=CC(=O)N1CCN(c2nc(=O)n(-c3c(C)ccnc3C(C)C)c3nc(-c4c(O)cccc4F)c(F)cc23)[C@@H](C)C1 [sotorasib]
combination cScore with sotorasib [1]: 6.62 | combination cScore with sotorasib [2]: 5.64

COc1cc([C@@H]2c3cc4c(cc3[C@@H](O[C@@H]3O[C@@H]5CO[C@@H](C)O[C@H]5[C@H](O)[C@H]3O)[C@H]3COC(=O)[C@H]23)OCO4)cc(OC)c1O [Etoposide] + C=CC(=O)N1CCN(c2nc(=O)n(-c3c(C)ccnc3C(C)C)c3nc(-c4c(O)cccc4F)c(F)cc23)[C@@H](C)C1 [sotorasib]
combination cScore with sotorasib [1]: 14.1 | combination cScore with sotorasib [2]: 4.54

CO[C@H]1C[C@@H]2CC[C@@H](C)[C@@](O)(O2)C(=O)C(=O)N2CCCC[C@H]2C(=O)O[C@H]([C@H](C)C[C@@H]2CC[C@@H](OCCO)[C@H](OC)C2)CC(=O)[C@H](C)/C=C(\C)[C@@H](O)[C@@H](OC)C(=O)[C@H](C)C[C@H](C)/C=C/C=C/C=C/1C [Everolimus] + C=CC(=O)N1CCN(c2nc(=O)n(-c3c(C)ccnc3C(C)C)c3nc(-c4c(O)cccc4F)c(F)cc23)[C@@H](C)C1 [sotorasib]
combination cScore with sotorasib [1]: 4.54 | combination cScore with sotorasib [2]: -4.84
